Results published in patent publication US5364869A, “Heterocycle-substituted benzyaminopyridine angiotensin II receptor antagonists” (Abbott Laboratories, priority 1993, dated 1994).

Assays:
angiotensin II receptor = target: T1, angiotensin II receptor (Oryctolagus cuniculus, UniProt P34976); assay: Antagonism of contraction of rabbit aorta (angiotensin II functional assay, isolated rabbit aorta); parameters: species or system rabbit (female New Zealand White); conditions: Schild analysis; for Kb: pA2 = negative logarithm of [A]2
T1 construct: Main abdominal aortas were removed and placed in Krebs-Henseleit buffer; from tissue; host or cells: abdominal aorta rings of female New Zealand White rabbits
T1 sequence (P34976 1-359): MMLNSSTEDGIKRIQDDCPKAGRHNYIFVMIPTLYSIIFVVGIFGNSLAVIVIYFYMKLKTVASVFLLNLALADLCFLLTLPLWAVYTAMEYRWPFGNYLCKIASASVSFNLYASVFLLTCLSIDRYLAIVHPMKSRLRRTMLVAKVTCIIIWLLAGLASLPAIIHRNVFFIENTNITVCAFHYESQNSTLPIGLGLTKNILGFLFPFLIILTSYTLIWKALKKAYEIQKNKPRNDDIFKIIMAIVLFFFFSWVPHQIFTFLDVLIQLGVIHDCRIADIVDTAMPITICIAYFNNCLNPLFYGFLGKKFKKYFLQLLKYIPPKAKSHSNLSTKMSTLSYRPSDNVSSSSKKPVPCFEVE
Source text: ANGIOTENSIN II FUNCTIONAL ASSAY
Antagonism of Contraction of Rabbit Aorta
The protocol reported by A. T. Chiu and P. Timmermans (P. C. Wong, et al. Hypertension, 13, 489-497 (1989)) was followed with a few modifications. Female New Zealand White rabbits weighing 2-5 kg were sedated with carbon dioxide and then sacrificed. Main abdominal aortas were removed and placed in Krebs-Henseleit buffer at room temperature.
The tissues were cleaned of extraneous connective tissue, cut into 3 mm rings, and suspended within a 10 mL tissue bath. All dilutions of peptide preparations were made with 0.3% aqueous BSA. The tissues were primed with 55 mM potassium chloride. Tissues were pre-loaded with 1 g of tension. Tension was recorded on a model 7 Grass polygraph using FT03 transducers. At the end of the equilibrium period, a control cumulative concentration-contractile response curve for angiotensin II (A II: 1×10^-10 -10^-8 M) was obtained. The tissue was washed several times until the baseline was reached. Forty five minutes later, test compound (antagonist) was added and the tissue was incubated for 30 minutes. The concentration-response curve for A II was then repeated in the presence of the test compound. One dose of antagonist was tested per tissue only. For single dose shift experiments a dose of 1 mM of test compound was used, for a full pA2 experiment multiple doses were used depending upon the potency of the antagonist.
All responses to the control agonist were calculated as a percentage of the maximum response. These points in duplicate were plotted and analyzed according to standard Schild analysis (H. O. Schild, British J Pharmacology and Chemotherapy, 2, 189-206 (1947). The pA2 values calculated for the compounds of the invention are shown in Table 1. The pA2 value is the negative logarithm of the [A]2 value. [A]2 is the concentration of antagonist which necessitates doubling the agonist concentration in order to achieve the agonist effect which was measured in the absence of antagonist.
The pA2 value, therefore is a measure of the effectiveness of the compound as an antagonist.

[1] = test system: hypertension and congestive heart failure; conditions: background; cited from earlier work
angiotensin II = conditions: background; cited from earlier work
[2] = background; cited from earlier work
[3] = after intravenous administration; due to angiotensin receptor agonist activity; cited from earlier work

Work on `CCCN(Cc1ccc2c(Br)c(-c3ccccc3-c3nn[nH]n3)sc2c1)c1ncccc1C(=O)O` [Example 3] yielded a pA2 (angiotensin II receptor; pA2 = negative logarithm of [A]2, 30 min) of 7.53.

With `CCCN(Cc1ccc(OC(C(=O)O)c2ccccc2)cc1)c1nc(C)ncc1C(=O)O` (stereo not drawn) [Example 1, 4-[N-4-(1-Carboxy-1-phenylmethoxy)benzyl-N-propyl]amino-2-methylpyrimidine-5-carboxylic acid] the Kb (angiotensin II receptor) was 589 nM.

For `COc1ccc(C[C@H](NC(=O)CC(C)(C)N)C(=O)N[C@@H](Cc2cnc[nH]2)C(=O)N[C@@H](CC2CCCCC2)[C@@H](O)[C@@H](O)CC(C)C)cc1` [enalkiren], the “clinical efficacy in treating hypertension and congestive heart failure (in words)” value (shortened to “clinical efficacy”) [1] is given as “have clinical efficacy in treating hypertension and congestive heart failure”.

For `CCOC(=O)[C@H](CCc1ccccc1)N[C@@H](C)C(=O)N1CCC[C@H]1C(=O)O` [enalapril], the “clinical efficacy” value [1] is listed as “have clinical efficacy in treating hypertension and congestive heart failure”.

For `C[C@H](CS)C(=O)N1CCC[C@H]1C(=O)O` [captopril], the “clinical efficacy” value [1] is listed as “have clinical efficacy in treating hypertension and congestive heart failure”.

For `CNCC(=O)N[C@@H](CCCN=C(N)N)C(=O)N[C@H](C(=O)N[C@@H](Cc1ccc(O)cc1)C(=O)N[C@H](C(=O)N[C@@H](Cc1cnc[nH]1)C(=O)N1CCC[C@H]1C(=O)N[C@@H](C)C(=O)O)C(C)C)C(C)C` [saralasin, [Sar^1, Ala^8] angiotensin II], the “antagonist of the actions of angiotensin II (in words)” value (angiotensin II) is given as “potent antagonist of the actions of angiotensin II”, the “oral bioavailability (in words)” value [2] is given as “very poor oral bioavailability” and the “initial blood pressure change (in words)” value [3] is given as “initial increase in blood pressure after intravenous administration”.

For `CCCN(Cc1ccc(-n2cc(Br)cc2-c2nn[nH]n2)cc1)c1ncccc1C(=O)O` [Example 4H, 2-{N-Propyl-N-[(1-[3-bromo-5-(1H-tetrazol-5-yl)pyrrole-1-yl]phenyl-4-yl)methyl]amino}pyridine-3-carboxylic acid], the Kb (angiotensin II receptor) was 0.132 nM.
